Source: patent US7745462B2, “Quinoline-2-one derivatives for the treatment of airways diseases” (Novartis AG, priority 2003, dated 2010)
Like-named read-outs stand apart in the source and are kept apart here.

Columns and labels:
β1-adrenoreceptor = β1-adrenoreceptor (Homo sapiens, UniProt P08588); assay: β1-adrenoreceptor binding potency, classical filtration binding assay
Source text: (§1) The β2 agonist activity, onset of action and duration of action of the agents of the invention may be tested using the guinea pig tracheal strip in vitro assay according to the procedure of R. A. Coleman and A. T. Nials, J. Pharmacol. Methods 1989, 21, 71.

β2-adrenoreceptor = β2-adrenoreceptor (Homo sapiens, UniProt P07550); assay: β2-adrenoreceptor binding potency, classical filtration binding assay
Source text: as §1

[1] = read-out: Ki (β1) binding potency, classical filtration binding assay, second value of β2/β1 pair
[2] = read-out: Ki (β2) binding potency, classical filtration binding assay, first value of β2/β1 pair

Sequence of β1-adrenoreceptor (P08588 whole entry, species assumed): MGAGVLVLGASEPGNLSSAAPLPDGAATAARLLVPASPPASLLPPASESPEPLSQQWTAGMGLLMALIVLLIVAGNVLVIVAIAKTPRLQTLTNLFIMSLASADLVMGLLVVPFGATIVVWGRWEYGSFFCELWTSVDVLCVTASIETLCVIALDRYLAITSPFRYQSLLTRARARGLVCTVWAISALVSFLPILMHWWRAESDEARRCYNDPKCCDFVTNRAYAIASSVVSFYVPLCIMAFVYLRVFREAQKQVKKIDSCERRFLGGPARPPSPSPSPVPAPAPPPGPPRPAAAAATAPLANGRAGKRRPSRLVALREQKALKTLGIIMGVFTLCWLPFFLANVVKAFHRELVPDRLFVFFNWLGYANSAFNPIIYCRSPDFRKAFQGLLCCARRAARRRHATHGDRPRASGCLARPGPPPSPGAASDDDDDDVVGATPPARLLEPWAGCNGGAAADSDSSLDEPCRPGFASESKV

| Compound | Ki (β1-adrenoreceptor) [nM] | Ki (β2-adrenoreceptor) [nM] | Ki (β1-adrenoreceptor; [1]) [nM] | Ki (β2-adrenoreceptor; [2]) [nM] |
| --- | --- | --- | --- | --- |
| COCC1(NC[C@H](O)c2ccc(O)c3[nH]c(=O)ccc23)Cc2ccccc2C1 [Example 55, 8-Hydroxy-5-[R-1-hydroxy-2-(2-methoxymethylindan-2-ylamino)-ethyl]-1H-quinolin-2-one] | 384 | 128 |  |  |
| O=c1ccc2c(C(O)CNC3CCCC3C3CCCCC3)ccc(O)c2[nH]1 (mixture of isomers) [Example 33, 5-[R-2-(1S,2S-2-Cyclohexylcyclopentylamino)-1-hydroxyethyl]-8-hydroxy-1H-quinolin-2-one and 5-[R-2-(1R,2R-2-cyclohexylcyclopentylamino)-1-hydroxyethyl]-8-hydroxy-1H-quinolin-2-one] | 491 | 48 |  |  |
| O=c1ccc2c([C@@H](O)CN[C@@H]3CCc4ccccc43)ccc(O)c2[nH]1 [Example 1, 8-Hydroxy-5-[R-1-hydroxy-2-(R-indan-1-ylamino)ethyl]-1H-quinolin-2-one] | 186 | 26 |  |  |
| 5-[R-2-(1R,2R-2-Benzylcyclopentylamino)-1-hydroxyethyl]-8-hydroxy-1H-quinolin-2-one [Example 35] |  |  | 6 | 0.4 |
| CCC1=C(CC)CC2=C(C1)CC(NC[C@H](O)c1ccc(O)c3[nH]c(=O)ccc13)C2 [Example 30, 5-[R-2-(5,6-Diethyl-2,3,4,7-tetrahydro-1H-inden-2-ylamino)-1-hydroxyethyl]-8-hydroxy-1H-quinolin-2-one] | 132 | 77 |  |  |
| 5-[R-2-((3aS,5R,6aR)-2-Butyloctahydrocyclopenta[c]pyrrol-5-ylamino)-1-hydroxyethyl]-8-hydroxy-1H-quinolin-2-one and 5-[R-2-((3aS,5S,6aR)-2-butyloctahydrocyclopenta[c]pyrrol-5-ylamino)-1-hydroxyethyl]-8-hydroxy-1H-quinolin-2-one [Example 85] |  |  | 380 | 121 |
| CCCCc1ccc2c(c1)CCC2NC[C@H](O)c1ccc(O)c2[nH]c(=O)ccc12 (mixture of isomers) [Example 3, 5-[R-2-(RS-5-butylindan-1-ylamino)-1-hydroxyethyl]-8-hydroxy-1H-quinolin-2-one] | 50 | 54 |  |  |
| CC1c2ccccc2CC1NCC(O)c1ccc(O)c2[nH]c(=O)ccc12 (mixture of isomers) [Example 4, 8-Hydroxy-5-[R-1-hydroxy-2-(1R,2S-1-methylindan-2-ylamino)ethyl]-1H-quinolin-2-one and 8-hydroxy-5-[R-1-hydroxy-2-(1S,2R-1-methylindan-2-ylamino)ethyl]-1H-quinolin-2-one] | 115 | 6 |  |  |
| O=c1ccc2c([C@@H](O)CN[C@H]3Cc4ccc(-c5ccco5)cc4C3)ccc(O)c2[nH]1 [Example 139, 5-[R-2-(S-5-(Furan-2-yl)indan-2-ylamino)-1-hydroxyethyl]-8-hydroxy-1H-quinohnl-2-one] | 4 | 3 |  |  |
